Earlier results on three molecules are cited in patent US6746695B1, “Pharmaceutical preparations of bioactive substances extracted from natural sources” (Armadillo Pharmaceuticals, Inc., priority 1998, dated 2004).

One data set addresses T1, prostoglandin synthetase (Bos taurus, UniProt O62664).
T1 construct: prostoglandin synthetase prepared from bovine seminal vesicles; from tissue; host or cells: bovine seminal vesicles
T1 sequence (O62664 25-600): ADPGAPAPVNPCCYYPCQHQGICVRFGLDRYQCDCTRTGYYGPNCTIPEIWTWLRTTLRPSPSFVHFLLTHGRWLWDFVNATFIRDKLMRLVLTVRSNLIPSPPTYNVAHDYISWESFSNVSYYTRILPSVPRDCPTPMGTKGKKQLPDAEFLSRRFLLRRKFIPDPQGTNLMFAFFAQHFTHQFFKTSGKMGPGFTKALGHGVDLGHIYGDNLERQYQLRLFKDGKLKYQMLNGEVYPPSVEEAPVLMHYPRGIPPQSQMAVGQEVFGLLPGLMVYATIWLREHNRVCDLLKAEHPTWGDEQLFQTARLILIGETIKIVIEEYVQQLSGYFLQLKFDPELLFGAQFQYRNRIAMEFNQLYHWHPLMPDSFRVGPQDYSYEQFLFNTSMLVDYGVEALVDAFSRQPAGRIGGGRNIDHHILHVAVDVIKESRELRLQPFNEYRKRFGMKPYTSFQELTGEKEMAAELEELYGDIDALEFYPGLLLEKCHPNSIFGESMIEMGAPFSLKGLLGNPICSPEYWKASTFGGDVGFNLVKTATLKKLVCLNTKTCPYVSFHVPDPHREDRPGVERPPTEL
As to conditions: enzyme prepared from bovine seminal vesicles; compared with aspirin.

The conditions of data set [1]: Dogs.
The conditions of data set [2]: mice.
The conditions of data set [3]: rats.
The conditions of data set [4]: chickens.

Molecules are shown by their SMILES. Read-outs that look alike come from different tables or passages of the source.

For the molecule `COc1cc2c(cc1OC)[C@@H]1C[C@H](C[C@H]3CCCCN31)OC(=O)/C=C\c1ccc(O)c-2c1` [cryogenine], the “potency as inhibitor of prostoglandin synthetase relative to aspirin” value on prostoglandin synthetase is recorded as “more than twice as potent as aspirin”.

Take `CO[C@H]1[C@@H](OC)C[C@@H](O[C@@H]2O[C@H](CO)[C@@H](O)[C@H](O)[C@H]2O)/C(=C\C#N)[C@@H]1O` [Simmondsin]: the weight reduction result in data set [1] is reported as “useful weight reduction agent”. The food intake entry in data set [2], in data set [3] and in data set [4] was “reducing food intake” each time.

With `COc1ccc2c(c1OC)-c1cc(ccc1O)/C=C\C(=O)O[C@H]1C[C@@H]3CCCCC3[C@H]2C1` (stereo partly drawn) [nesodine], the “potency as inhibitor of prostoglandin synthetase relative to aspirin” value on prostoglandin synthetase was “more than twice as potent as aspirin”.
